Test results from ChEMBL document CHEMBL1201862, “PubChem BioAssay data set” (2004).
The source made the active and inactive calls.

Experiments:
[1] = target: G-protein coupled receptor 55 (Homo sapiens, UniProt Q9Y2T6); assay: GPR55 antagonists blocking LPI-driven arrestin recruitment, primary screen, imaging, U2OS, beta-arrestin-GFP, LPI agonist (AID 2013); format: functional;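 note: antagonist potency measured as reduced agonist-driven arrestin aggregation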
Cannabinoid receptor 1 [2] = target: T1, Cannabinoid receptor 1 (Homo sapiens, UniProt P21554); assay: SAR analysis of antagonists of the Cannabinoid Receptor 1 using an Image-Based Assay - Set 2. [Related pubchem assays (depositor defined):AID2013, AID2026]; format: functional
[3] = target: T2, G-protein coupled receptor 35 (Homo sapiens, UniProt Q9HC97); assay: SAR analysis of Agonists of the GPR35 Receptor using an Image-Based Assay - Set 2. [Related pubchem assays (depositor defined):AID2013, AID2026]; format: functional
Cannabinoid receptor 2 [4] = target: T3, Cannabinoid receptor 2 (Homo sapiens, UniProt P34972); assay: SAR analysis of antagonists of the Cannabinoid Receptor 2 using an Image-Based Assay. [Related pubchem assays (depositor defined):AID2013, AID2026]; format: functional
Cannabinoid receptor 1 [5] = target: T1, Cannabinoid receptor 1; assay: SAR analysis of agonists of the Cannabinoid Receptor 1 using an Image-Based Assay - Set 2. [Related pubchem assays (depositor defined):AID2013, AID2026]; format: functional
[6] = target: T2, G-protein coupled receptor 35; assay: SAR analysis of Antagonists of the GPR35 Receptor using an Image-Based Assay - Set 3. [Related pubchem assays (depositor defined):AID2013, AID2026]; format: functional
Cannabinoid receptor 2 [7] = target: T3, Cannabinoid receptor 2; assay: SAR analysis of agonists of the Cannabinoid Receptor 2 using an Image-Based Assay. [Related pubchem assays (depositor defined):AID2013, AID2026]; format: functional
[8] = system: Streptococcus sp. 'group A'; assay: growth inhibition of control SK(-) GAS strain, dose response, counter-screen for streptokinase expression inhibitor project, luminescence, kanamycin, BacTiterGlo, confirmation (AID 1900); format: functional, organism-based
Streptokinase A = target: T4, Streptokinase A (Streptococcus pyogenes serotype M1, UniProt P10520); assay: S. pyogenes streptokinase expression inhibitors, potency, dose response, plasminogen activation absorbance, OD405 (AID 1914); format: functional, Streptococcus pyogenes M1 GAS;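 note: secreted streptokinase activity via plasminogen activation per viability signal from cell pellet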
T4 sequence (P10520 whole entry): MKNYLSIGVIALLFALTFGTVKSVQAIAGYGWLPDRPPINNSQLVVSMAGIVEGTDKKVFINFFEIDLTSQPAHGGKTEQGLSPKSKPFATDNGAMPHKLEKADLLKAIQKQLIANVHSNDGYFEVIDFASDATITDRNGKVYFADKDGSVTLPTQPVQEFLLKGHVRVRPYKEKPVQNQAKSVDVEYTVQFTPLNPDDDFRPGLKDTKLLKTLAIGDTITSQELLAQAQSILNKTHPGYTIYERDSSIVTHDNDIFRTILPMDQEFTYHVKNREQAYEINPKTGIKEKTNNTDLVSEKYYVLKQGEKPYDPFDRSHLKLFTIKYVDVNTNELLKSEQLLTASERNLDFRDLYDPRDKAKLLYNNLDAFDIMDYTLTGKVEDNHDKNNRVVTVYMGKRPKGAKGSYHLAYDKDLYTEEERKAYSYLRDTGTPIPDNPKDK

Streptococcus = assay: Group A Streptococcus viability loss, dose response, counter-screen for streptokinase expression inhibitor project, luminescence, BacTiterGlo (AID 1915); format: functional, organism-based;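 note: potency for reduction of bacterial viability or growth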
Hexokinase HKDC1 = target: T5, Hexokinase HKDC1 (Homo sapiens, UniProt Q2TB90); assay: HKDC1 hexokinase activators, dose response, biochemical, W721R variant (AID 504730); format: functional
T5 sequence (Q2TB90 whole entry): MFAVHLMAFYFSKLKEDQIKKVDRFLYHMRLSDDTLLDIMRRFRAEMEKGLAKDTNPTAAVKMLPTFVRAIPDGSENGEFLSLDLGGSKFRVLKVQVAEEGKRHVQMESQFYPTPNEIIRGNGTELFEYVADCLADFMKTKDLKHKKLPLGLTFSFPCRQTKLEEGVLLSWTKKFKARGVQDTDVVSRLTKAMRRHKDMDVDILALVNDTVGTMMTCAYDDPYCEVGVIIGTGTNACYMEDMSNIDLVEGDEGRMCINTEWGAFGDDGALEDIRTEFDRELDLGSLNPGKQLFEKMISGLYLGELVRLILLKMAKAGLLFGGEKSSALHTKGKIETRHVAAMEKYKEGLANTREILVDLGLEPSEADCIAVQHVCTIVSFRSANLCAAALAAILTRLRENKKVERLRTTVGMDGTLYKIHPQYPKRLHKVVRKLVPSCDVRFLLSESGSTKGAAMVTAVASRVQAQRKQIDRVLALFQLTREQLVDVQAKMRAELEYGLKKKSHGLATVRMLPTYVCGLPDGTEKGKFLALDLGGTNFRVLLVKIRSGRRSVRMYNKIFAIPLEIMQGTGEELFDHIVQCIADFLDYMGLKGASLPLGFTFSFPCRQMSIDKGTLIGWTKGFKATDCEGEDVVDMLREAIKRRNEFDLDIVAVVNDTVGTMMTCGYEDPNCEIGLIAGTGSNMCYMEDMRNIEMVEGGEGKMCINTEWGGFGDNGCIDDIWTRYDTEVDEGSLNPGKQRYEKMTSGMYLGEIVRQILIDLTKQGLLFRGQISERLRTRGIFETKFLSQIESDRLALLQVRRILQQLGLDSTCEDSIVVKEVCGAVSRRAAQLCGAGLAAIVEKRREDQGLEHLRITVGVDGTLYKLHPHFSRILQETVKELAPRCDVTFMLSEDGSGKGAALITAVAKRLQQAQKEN

Hexokinase-1 = target: T6, Hexokinase-1 (Homo sapiens, UniProt P19367); assay: hexokinase 1 activators, dose response, selectivity assay for HKDC1 activator project, biochemical (AID 504762); format: functional
T6 sequence (P19367 whole entry): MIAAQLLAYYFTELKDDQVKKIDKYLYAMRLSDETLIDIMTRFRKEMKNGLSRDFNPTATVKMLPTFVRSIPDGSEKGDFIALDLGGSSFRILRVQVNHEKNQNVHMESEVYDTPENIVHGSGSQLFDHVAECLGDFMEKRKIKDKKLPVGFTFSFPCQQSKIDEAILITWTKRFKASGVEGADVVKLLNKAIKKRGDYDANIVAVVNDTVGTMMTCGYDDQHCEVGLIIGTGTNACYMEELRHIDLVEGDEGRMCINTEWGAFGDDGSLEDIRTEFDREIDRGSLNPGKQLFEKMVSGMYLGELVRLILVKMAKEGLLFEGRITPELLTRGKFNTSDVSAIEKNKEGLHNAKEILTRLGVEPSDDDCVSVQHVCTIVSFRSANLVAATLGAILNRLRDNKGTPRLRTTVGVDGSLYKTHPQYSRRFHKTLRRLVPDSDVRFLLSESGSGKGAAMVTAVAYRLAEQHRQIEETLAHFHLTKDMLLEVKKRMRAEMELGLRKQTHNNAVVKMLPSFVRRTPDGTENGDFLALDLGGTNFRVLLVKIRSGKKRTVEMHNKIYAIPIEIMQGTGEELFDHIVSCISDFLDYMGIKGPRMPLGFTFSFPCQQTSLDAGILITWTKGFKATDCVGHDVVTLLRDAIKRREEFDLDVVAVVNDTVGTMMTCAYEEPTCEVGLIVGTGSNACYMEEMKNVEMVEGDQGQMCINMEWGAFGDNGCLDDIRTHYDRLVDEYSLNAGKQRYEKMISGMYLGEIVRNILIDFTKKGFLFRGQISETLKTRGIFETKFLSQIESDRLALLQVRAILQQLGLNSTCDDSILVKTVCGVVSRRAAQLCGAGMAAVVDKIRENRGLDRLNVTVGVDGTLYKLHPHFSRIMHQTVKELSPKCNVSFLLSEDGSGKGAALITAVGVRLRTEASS

INS1 = assay: beta cell apoptosis inhibitors, cytokine rescue, dose response, luminescence, retest (AID 449756); format: functional, cell-based; details: Rattus norvegicus;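 note: cell death triggered by IL-1 beta plus TNF-alpha plus IFN-gamma mixture; protective hits raise ATP signal compared with cytokine alone wells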
[9] = HepG2 cell cytotoxicity, dose response, cytotoxicity control for Shn3 inhibitor project, CellTiter-Glo, cherry-picked (AID 624134); format: functional, cell-based
[10] = control 3'UTR Renilla luciferase suppression, dose response, counter-screen for Shn3 inhibitor project, cell-based, Clone20-Shn3RL, cherry-picked (AID 624133); format: functional
Leucine aminopeptidase = target: T7, Leucine aminopeptidase (Plasmodium falciparum 3D7, UniProt Q8IL11); assay: P. falciparum M17LAP inhibitors, primary screen, biochemical, fluorogenic H-Leu-NHMec substrate, 1536-well (AID 1619); format: functional
T7 sequence (Q8IL11 whole entry): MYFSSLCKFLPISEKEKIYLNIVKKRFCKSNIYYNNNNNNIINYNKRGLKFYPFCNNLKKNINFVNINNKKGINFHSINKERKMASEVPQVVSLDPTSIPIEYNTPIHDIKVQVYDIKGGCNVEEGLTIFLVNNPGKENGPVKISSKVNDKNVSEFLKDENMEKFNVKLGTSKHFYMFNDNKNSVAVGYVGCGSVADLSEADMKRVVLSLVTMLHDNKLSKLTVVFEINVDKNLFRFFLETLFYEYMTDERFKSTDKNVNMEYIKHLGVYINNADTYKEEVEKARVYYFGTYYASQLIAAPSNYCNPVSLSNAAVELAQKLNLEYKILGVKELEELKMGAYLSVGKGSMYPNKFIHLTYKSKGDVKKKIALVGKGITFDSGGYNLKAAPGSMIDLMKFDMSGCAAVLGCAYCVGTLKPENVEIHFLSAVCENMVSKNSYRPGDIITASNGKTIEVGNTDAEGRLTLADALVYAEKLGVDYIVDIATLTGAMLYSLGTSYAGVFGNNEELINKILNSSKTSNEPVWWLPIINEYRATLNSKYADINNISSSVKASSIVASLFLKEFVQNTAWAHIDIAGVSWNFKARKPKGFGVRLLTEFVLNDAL

[11] = target: Alkaline phosphatase, placental type (Homo sapiens, UniProt P05187); assay: PLAP enzyme inhibitors, confirmation, biochemical, luminescence (AID 1512); format: functional
[12] = target: T8, Alkaline phosphatase, tissue-nonspecific isozyme (Homo sapiens, UniProt P05186); assay: human TNAP enzyme inhibitors, SAR follow-up, biochemical, luminescent, dose response (AID 1056)
T8 sequence (P05186 whole entry): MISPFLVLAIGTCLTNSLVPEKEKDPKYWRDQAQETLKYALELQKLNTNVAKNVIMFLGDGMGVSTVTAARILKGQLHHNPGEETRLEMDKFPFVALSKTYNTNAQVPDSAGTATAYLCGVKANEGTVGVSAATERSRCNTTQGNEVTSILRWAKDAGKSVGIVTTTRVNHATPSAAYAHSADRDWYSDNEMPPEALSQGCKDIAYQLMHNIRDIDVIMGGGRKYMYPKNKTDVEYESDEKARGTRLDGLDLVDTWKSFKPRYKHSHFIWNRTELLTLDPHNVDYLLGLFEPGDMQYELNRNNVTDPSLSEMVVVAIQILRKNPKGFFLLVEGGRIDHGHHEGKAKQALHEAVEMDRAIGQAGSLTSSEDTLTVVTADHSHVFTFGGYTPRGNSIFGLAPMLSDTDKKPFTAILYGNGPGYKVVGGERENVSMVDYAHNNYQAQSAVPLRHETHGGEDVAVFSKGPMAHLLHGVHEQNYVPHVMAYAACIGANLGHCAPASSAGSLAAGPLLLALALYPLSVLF

T2 sequence (Q9HC97 whole entry): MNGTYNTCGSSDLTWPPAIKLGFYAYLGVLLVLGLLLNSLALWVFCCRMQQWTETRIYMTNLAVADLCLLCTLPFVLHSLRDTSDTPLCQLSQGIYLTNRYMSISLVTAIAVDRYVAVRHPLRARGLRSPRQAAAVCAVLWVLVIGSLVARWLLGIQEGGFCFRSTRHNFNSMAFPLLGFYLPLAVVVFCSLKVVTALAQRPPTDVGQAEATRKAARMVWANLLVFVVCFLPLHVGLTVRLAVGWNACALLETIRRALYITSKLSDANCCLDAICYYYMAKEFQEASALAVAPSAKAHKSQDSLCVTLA
T3 sequence (P34972 whole entry): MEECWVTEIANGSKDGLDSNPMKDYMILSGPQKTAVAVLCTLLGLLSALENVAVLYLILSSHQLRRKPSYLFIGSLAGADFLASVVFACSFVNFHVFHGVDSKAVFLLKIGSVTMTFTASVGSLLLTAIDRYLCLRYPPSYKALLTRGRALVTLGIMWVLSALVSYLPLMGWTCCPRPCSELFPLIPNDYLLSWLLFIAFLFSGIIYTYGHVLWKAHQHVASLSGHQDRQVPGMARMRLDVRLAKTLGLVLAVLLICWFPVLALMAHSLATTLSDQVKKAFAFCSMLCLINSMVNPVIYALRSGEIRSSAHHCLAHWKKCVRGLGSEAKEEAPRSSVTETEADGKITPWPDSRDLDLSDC
T1 sequence (P21554 whole entry): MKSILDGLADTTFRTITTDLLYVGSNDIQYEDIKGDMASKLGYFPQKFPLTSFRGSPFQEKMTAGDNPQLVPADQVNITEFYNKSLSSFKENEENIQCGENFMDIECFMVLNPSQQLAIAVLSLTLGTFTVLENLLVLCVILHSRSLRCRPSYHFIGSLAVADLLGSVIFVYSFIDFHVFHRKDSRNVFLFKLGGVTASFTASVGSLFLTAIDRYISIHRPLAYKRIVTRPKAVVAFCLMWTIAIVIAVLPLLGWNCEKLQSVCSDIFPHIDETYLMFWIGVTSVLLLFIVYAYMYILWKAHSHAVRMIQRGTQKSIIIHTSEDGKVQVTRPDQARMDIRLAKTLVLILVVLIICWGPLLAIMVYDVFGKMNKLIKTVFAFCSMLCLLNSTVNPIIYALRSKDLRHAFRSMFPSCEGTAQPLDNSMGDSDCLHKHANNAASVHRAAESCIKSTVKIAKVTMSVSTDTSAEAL
Chain of G-protein coupled receptor 55 (Q9Y2T6 whole entry): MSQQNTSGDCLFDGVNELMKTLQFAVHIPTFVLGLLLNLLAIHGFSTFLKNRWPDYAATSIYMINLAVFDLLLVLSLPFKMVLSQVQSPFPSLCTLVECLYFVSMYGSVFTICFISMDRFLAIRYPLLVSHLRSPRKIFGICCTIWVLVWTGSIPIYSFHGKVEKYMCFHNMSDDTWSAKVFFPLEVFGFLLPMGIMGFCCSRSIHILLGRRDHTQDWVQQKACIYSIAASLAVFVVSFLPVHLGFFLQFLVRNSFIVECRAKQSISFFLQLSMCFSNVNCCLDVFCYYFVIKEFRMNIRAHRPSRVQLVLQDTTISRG
Chain of Alkaline phosphatase, placental type (P05187 whole entry): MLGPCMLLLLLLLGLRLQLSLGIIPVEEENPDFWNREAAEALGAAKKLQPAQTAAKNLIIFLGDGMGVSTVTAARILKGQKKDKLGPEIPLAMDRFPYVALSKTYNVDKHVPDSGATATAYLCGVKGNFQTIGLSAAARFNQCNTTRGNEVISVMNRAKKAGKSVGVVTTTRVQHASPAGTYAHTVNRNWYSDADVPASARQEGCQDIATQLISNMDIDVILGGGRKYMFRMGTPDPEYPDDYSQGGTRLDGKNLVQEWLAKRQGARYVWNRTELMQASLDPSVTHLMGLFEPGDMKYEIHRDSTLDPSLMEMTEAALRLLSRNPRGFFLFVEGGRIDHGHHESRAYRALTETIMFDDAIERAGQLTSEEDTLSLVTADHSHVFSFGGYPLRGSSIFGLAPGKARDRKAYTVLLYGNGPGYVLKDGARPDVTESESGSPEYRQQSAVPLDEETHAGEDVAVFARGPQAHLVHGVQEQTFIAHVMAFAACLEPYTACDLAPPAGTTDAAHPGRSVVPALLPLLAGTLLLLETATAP

Structure (SMILES): Cc1nc(N2CCN(C(=O)c3ccco3)CC2)c2c3c(sc2n1)CCCC3
- IC50 [1]: 1.58 µM (active)
- IC50 (Cannabinoid receptor 1 [2]): > 32 µM (inactive)
- EC50 [3]: > 32 µM (inactive)
- IC50 (Cannabinoid receptor 2 [4]): > 32 µM (inactive)
- EC50 (Cannabinoid receptor 1 [5]): > 32 µM (inactive)
- IC50 [6]: > 32 µM (inactive)
- EC50 (Cannabinoid receptor 2 [7]): > 32 µM (inactive)

Structure (SMILES): Fc1ccccc1NC1=NN=C(c2ccccc2)CS1
- EC50 [8]: 4.31 µM (active)
- EC50 (Streptokinase A): > 150 µM (not active)
- EC50 (Streptococcus): 9 µM (active)
- EC50 (Hexokinase HKDC1): 20.2 µM (inactive)
- EC50 (Hexokinase-1): 29.7 µM (inactive)
- AC50 (INS1): 7.51 µM (active)
- AC50 [9]: 33.5 µM (active)
- AC50 [10]: 11.1 µM (active)

Structure (SMILES): CCn1c(SCC(=O)c2ccc(O)c(O)c2)nnc1-c1ccccc1
- IC50 (Leucine aminopeptidase): 13.3 µM (active)
- IC50 [11]: 4.32 µM (active)
- IC50 [12]: 35.8 µM (active)
